Measured values taken from patent US20090247770A1, “PROCESS FOR MAKING LACTAM TACHYKININ RECEPTOR ANTAGONISTS” (priority 2006, published 2009).
Counter-ions that a name gives are not always drawn. Like-named read-outs stand apart in the source and are kept apart here.

Assays:
[1] = Solid state chemical stability of crystalline salts; format: physicochemical
[2] = Relative thermodynamic stability of crystal forms; format: physicochemical; settings: comparison of besylate crystal forms
Description: The benzyloxycarbonyl (Cbz) group of 16 was cleaved to give 1 by a noble transition metal, such as Pd/C, […], Pt/C, catalyzed hydrogenation in an alcoholic solvent such as methanol, ethanol, or the like, or by acidic solvolysis with a hydrogen halide such as HCl, HBr, or HI or an equivalent such as combination of a metal or an ammonium halide and an acid trifluoroacetic acid, methanesulfonic acid, or the like in organic solvent such as acetonitrile, toluene, or acetic acid at a temperature from about 0° C. to about 60° C. If this deprotection of Cbz group was carried out under acidic condition, 1 could be obtained from 14a,b or 15a,b in a one-pot manner. Benzyl halide, which was a side product of deprotection of Cbz group, was easily removed from the reaction mixture by back-extraction with heptane. Free base of 1 was difficult to be extracted from the aqueous layer to organic layer because of its amphipathic physical property. […] Crude free base was purified by crystallization as a benzenesulfonate salt from IPA-IPAc-heptane solvent system. The benzenesulfonate salt has two crystal forms Form I or II. […] The benzenesulfonate salt can be recrystallized from acetonitrile and alcohol such as methanol, ethanol, or isopropanol, if necessary.

[3] = Solid state physical stability (form conversion) of crystalline salts; format: physicochemical; settings: No form conversion after 1 week at 40° C./ambient RH, 40° C./75% RH, and 80° C.
[4] = Hygroscopicity of crystalline salts of the compound of Formula Ia; format: physicochemical

Row | SMILES | melting point [°C] | Solid State Chemical Stability [1] | Thermodynamic stability relative to other crystal form [2] | Solid State Physical Stability [3] | Solid State Chemical Stability ([1]; listed as anhydrous form I) | Hygroscopicity (25° C.) [4] | Solid State Physical Stability ([3]; listed as anhydrous form I)
1 | C[C@@H](O[C@H]1CC[C@@H]([C@H]2C[C@@](C)(N)C(=O)N2)[C@@H]1c1ccc(F)cc1)c1cc(C(F)(F)F)cc(C(F)(F)F)c1 (as salt: succinate) (hydrate or solvate) | 187 |  |  |  |  |  | 
2 | C[C@@H](O[C@H]1CC[C@@H]([C@H]2C[C@@](C)(N)C(=O)N2)[C@@H]1c1ccc(F)cc1)c1cc(C(F)(F)F)cc(C(F)(F)F)c1 [Besylate Anhydrous Form II] |  | Stable | more thermodynamically stable than Form 1 | Stable^3 |  |  | 
3 | C[C@@H](O[C@H]1CC[C@@H]([C@H]2C[C@@](C)(N)C(=O)N2)[C@@H]1c1ccc(F)cc1)c1cc(C(F)(F)F)cc(C(F)(F)F)c1 [Besylate Anhydrous Form I] |  | Stable | more thermodynamically stable than form II | Stable^3 | physically and chemically stable | consistently non-hygroscopic | physically and chemically stable
4 | C[C@@H](O[C@H]1CC[C@@H]([C@H]2C[C@@](C)(N)C(=O)N2)[C@@H]1c1ccc(F)cc1)c1cc(C(F)(F)F)cc(C(F)(F)F)c1 [Succinate] |  |  |  | Stable |  |  | 
